Changes are numbered by the printed parent chain.
Key:
[1] = according to ATSDR; ref https://www.atsdr.cdc.gov/toxprofiles; cited from earlier work
human OCTN1 = biological target: T1, human OCTN1 (Homo sapiens, UniProt Q9H015); type: biochemical; conditions: 60 min; for IC50: OCTN1 WT proteoliposomes, 0.1 mM [14C]-TEA, read-out: IC50 (µM) on [14C]-TEA uptake
T1 construct: made in house; host or cells: E. coli Rosetta(DE3)pLysS
T1 sequence (Q9H015 1-551): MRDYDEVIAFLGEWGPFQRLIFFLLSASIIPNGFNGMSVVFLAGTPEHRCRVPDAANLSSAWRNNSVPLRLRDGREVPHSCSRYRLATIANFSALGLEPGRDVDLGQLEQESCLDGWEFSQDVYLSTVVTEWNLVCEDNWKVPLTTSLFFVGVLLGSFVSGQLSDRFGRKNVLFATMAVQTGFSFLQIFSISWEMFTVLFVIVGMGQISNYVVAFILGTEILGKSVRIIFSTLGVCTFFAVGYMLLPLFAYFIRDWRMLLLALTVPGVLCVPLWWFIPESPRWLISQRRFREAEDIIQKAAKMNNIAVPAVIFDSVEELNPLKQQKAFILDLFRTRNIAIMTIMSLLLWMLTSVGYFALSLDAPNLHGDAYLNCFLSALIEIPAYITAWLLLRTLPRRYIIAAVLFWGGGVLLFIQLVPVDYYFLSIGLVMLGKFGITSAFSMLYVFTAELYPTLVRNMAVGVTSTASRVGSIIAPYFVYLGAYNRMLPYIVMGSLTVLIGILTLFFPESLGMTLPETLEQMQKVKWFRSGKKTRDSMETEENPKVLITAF
Procedure: (§1) After desalting, the protein was reconstituted in liposomes. The composition of the initial mixture used for reconstitution was as follows: 50 µg of protein (or desalt buffer in liposomes without the incorporated protein), 80 µL of 10% C12E8, 120 µL of 10% egg yolk phospholipids with 25% cholesterol in the form of sonicated liposomes, 16 mM ATP disodium salt, and 5 mM BisTris/HCl (pH 7.5) in a final volume of 700 µL. The purified OCTN1 (WT or C-less mutant) was inserted in the liposomal membrane using the batch-wise technique. This procedure used 0.5 g of Amberlite XAD-4 to remove the detergent from mixed micelles consisting of proteins, phospholipids and detergent at 23 °C for 40 min at 1200 rpm, as previously described.
(§2) Proteoliposomes and liposomes (600 μL) were applied onto a Sephadex G-75 (Merck Life Science, Milan, Italy) column (0.7 cm diameter × 15 cm height) pre-equilibrated with 5 mM BIS-Tris/HCl (pH 8.0) and eluted with 600 μL of the same buffer. Samples of 100 μL each were prepared from the 600 μL pool. The transport was initiated by [^14C]-TEA or [^3H]-Ach at the concentration of 0.1 mM to the proteoliposome samples and stopped after 60 min according to the stop-inhibitor method. In the blank samples, the inhibitor (1 mM Hemicholinium-3) was added at time zero. After the transport time, each sample was applied onto a Sephadex G-75 column (0.6 cm diameter × 8 cm height) and pre-equilibrated with 50 mM NaCl to remove the radioactivity not taken up. Proteoliposomes were eluted with 50 mM NaCl (1 mL), added to 3 mL Pico-Fluor Plus, vortexed, and counted. The radioactivity in the blank samples was used to subtract background radioactivity from the protein-associated one.
All experimental data were derived from the mean of three independent experiments, and results were expressed as means ± SD. IC50 values were derived from data fitting the IC50 equation using Grafit v 5.0.13 software (Erithacus Software (v 5.0.13), East Grinstead, UK).

Cys-less OCTN1 = biological target: T2, Cys-less OCTN1 (Homo sapiens, UniProt Q9H015, C113A/C136A/C236A/C270A/C374A/C50A/C81A); assay: [14C]-TEA uptake by Cys-less OCTN1 mutant reconstituted in proteoliposomes; type: biochemical; conditions: 100 µM metal (250 µM CrCl2), 0.1 mM [14C]-TEA, 60 min
T2 construct: made in house; host or cells: E. coli Rosetta(DE3)pLysS
T2 sequence (Q9H015 1-551 C50A/C81A/C113A/C136A/C236A/C270A/C374A): T1 sequence (Q9H015 1-551) with C50A, C81A, C113A, C136A, C236A, C270A, C374A
Procedure: The over-expression of OCTN1 wild type (WT) and C-less mutant proteins, as previously described in [17], has been performed in E. coli Rosetta(DE3)pLysS, as described in [60, 61].
as §1, with “This procedure used 0.5 g of Amberlite XAD-4 to remove the detergent from mixed micelles consisting of proteins, phospholipids and detergent at 23 °C for 40 min at 1200 rpm, as previously described.” left out
as §2, with “Samples of 100 μL each were prepared from the 600 μL pool. The transport was initiated by [^14C]-TEA or [^3H]-Ach at the concentration of 0.1 mM to the proteoliposome samples and stopped after 60 min according to the stop-inhibitor method. In the blank samples, the inhibitor (1 mM Hemicholinium-3) was added at time zero.” left out

Row | SMILES | Level of Toxicity [1] | IC50 (human OCTN1) [µM] | also measured
1 | [Cd] [Cadmium] | +++ |  | 
2 | [Cl][Cd][Cl] [CdCl2, Cadmium chloride] |  | 56 ± 4 | 
3 | [Cr] [Chromium] | +++ |  | 
4 | [Cl][Cr][Cl] [CrCl2, Chromium (II) chloride] |  | 170 ± 15 | Inhibition of [14C]-TEA transport by Cys-less OCTN1 (Cys-less OCTN1): only exception; Effect of DTE and cysteine on the inhibition of [14C]-TEA transport by heavy metals (human OCTN1; 100 µM metal (250 µM CrCl2), 5 mM DTE or Cys): only exception
5 | [Cl][Hg][Cl] [HgCl2, Mercury (II) chloride] |  | 121 ± 7 | 
6 | O=[N+]([O-])[O-].O=[N+]([O-])[O-].[Pb+2] [Pb(NO3)2, Lead nitrate] |  | 90 ± 19 | 
7 | [Zn] [Zinc] | + |  | 
8 | [Cl-].[Cl-].[Zn+2] [ZnCl2, Zinc chloride] |  | 57 ± 17 | 

From publication PMC11642070, “OCTN1 (SLC22A4) as a Target of Heavy Metals: Its Possible Role in Microplastic Threats” (International Journal of Molecular Sciences, 2024)
